Reference: ChEMBL document CHEMBL1201862, “PubChem BioAssay data set” (2004)
Activity calls are given as the source filed them.

What was measured:
Escherichia coli [1] = assay: microbe, parasite or virus in culture
Escherichia coli [2] = assay: microbe, parasite or virus in culture; remark: listed apart in the source
[3] = target: T1, Small ubiquitin-related modifier 1 (Homo sapiens, UniProt P63165); assay: inhibitors of SUMO1 peptide binding, dose response, biochemical, fluorescence polarization, uHTS hits (AID 624382); type: functional; details: read-out: IC50_Mean
[4] = target: T1, Small ubiquitin-related modifier 1; assay: inhibitors of SUMO1 partner interactions, dose response, biochemical, FRET (AID 624383); type: functional; details: read-out: IC50_Mean
[5] = target: Dual specificity protein phosphatase 3 (Homo sapiens, UniProt P51452); assay: VHR phosphatase inhibition, dose response, selectivity assay for STEP inhibitor project, biochemical (AID 602374); type: functional; details: read-out: IC50_Mean
[6] = target: T2, Tyrosine-protein phosphatase non-receptor type 11 (Homo sapiens, UniProt Q06124); assay: SHP2 phosphatase inhibition, dose response, selectivity assay for STEP inhibitor project, biochemical (AID 602367); type: functional; details: read-out: IC50_Mean
T2 sequence (Q06124 whole entry): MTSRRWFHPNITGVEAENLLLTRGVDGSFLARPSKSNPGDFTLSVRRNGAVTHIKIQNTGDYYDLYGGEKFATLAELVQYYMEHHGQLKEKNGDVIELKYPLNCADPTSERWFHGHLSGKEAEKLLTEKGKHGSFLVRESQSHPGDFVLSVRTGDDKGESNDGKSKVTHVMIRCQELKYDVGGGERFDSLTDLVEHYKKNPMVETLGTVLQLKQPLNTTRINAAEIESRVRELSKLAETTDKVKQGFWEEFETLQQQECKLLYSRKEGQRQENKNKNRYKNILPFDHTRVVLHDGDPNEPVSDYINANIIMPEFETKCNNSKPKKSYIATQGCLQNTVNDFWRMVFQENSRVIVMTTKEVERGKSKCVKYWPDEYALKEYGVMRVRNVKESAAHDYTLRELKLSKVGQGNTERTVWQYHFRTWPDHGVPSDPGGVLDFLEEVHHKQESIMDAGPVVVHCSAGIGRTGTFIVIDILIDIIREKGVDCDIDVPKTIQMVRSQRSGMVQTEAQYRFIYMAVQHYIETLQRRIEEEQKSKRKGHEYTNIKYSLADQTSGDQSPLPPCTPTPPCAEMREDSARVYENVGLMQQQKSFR

[7] = target: T3, Tyrosine-protein phosphatase non-receptor type 5 (Homo sapiens, UniProt P54829); assay: STEP phosphatase inhibitors, confirmation, biochemical, fluorescence intensity, uHTS hits (AID 602372); type: functional; details: read-out: IC50_Mean
T3 sequence (P54829 whole entry): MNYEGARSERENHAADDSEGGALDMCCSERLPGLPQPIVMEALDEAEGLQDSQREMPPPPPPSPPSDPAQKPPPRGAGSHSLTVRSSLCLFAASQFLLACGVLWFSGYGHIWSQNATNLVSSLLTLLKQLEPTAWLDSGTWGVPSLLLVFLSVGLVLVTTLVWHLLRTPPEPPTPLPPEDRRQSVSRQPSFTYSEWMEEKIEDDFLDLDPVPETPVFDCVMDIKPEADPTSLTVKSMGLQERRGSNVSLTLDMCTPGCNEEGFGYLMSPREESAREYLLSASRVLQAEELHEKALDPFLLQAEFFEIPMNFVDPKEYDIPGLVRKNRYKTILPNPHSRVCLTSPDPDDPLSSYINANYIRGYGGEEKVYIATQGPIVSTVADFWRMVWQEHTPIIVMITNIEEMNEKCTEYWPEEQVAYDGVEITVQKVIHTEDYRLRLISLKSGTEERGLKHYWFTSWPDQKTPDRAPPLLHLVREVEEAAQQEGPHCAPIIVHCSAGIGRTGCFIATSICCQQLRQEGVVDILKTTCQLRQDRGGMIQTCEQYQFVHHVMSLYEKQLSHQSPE

Fatty acid synthase [8] = target: T4, Fatty acid synthase (Homo sapiens, UniProt P49327); assay: FAS thioesterase domain inhibitors, dose response, biochemical, endpoint fluorescence intensity, uHTS hits (AID 624327); type: functional;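 further: fluorescence from hydrolysis of an O-methyl fluorescein acyl ester substrate by the enzyme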
Fatty acid synthase [9] = target: T4, Fatty acid synthase; assay: FAS thioesterase domain inhibitors, dose response, biochemical, kinetic fluorescence intensity (AID 624326); type: functional;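 further: rate of fluorescence rise from hydrolysis of a fluorogenic O-methyl fluorescein ester substrate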
[10] = off-target signal loss in HeLa-CEM21 co-culture – HeLa F-luc CTL cells, cherry-picked, counter-screen for HIV-1 Env fusion inhibitor project, dose response (AID 652040); type: functional, cell-based;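 further: potency for signal decrease marking cytotoxic or nonspecific inhibition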
[11] = ZM109 Env clade C HIV-1 fusion inhibitors, dose response, HeLa effector, CEM target cells, luciferase, cherry-pick (AID 652058); type: functional, cell-based
[12] = CEM21 lymphoblast cell cytotoxicity, dose response, cytotoxicity control for viral fusion inhibitor project, CellTiter-Glo luminescence, cherry-picked (AID 652042); type: functional, cell-based;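 further: potency for signal decrease meaning cytotoxicity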
[13] = inhibitors of clade B AD8 Env fusion, dose response, cell-based, cherry-pick (AID 652062); type: functional;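 further: luciferase signal from cell-cell fusion driven by HIV-1 clade B AD8 Env; potency is for inhibitors of fusion seen as a drop in luminescence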
[14] = inhibitors of HIV Env-driven cell fusion, dose response, cherry-pick (AID 652057); type: functional, cell-based
Protein skinhead-1 = target: T5, Protein skinhead-1 (Caenorhabditis elegans, UniProt P34707); type: functional
T5 sequence (P34707 whole entry): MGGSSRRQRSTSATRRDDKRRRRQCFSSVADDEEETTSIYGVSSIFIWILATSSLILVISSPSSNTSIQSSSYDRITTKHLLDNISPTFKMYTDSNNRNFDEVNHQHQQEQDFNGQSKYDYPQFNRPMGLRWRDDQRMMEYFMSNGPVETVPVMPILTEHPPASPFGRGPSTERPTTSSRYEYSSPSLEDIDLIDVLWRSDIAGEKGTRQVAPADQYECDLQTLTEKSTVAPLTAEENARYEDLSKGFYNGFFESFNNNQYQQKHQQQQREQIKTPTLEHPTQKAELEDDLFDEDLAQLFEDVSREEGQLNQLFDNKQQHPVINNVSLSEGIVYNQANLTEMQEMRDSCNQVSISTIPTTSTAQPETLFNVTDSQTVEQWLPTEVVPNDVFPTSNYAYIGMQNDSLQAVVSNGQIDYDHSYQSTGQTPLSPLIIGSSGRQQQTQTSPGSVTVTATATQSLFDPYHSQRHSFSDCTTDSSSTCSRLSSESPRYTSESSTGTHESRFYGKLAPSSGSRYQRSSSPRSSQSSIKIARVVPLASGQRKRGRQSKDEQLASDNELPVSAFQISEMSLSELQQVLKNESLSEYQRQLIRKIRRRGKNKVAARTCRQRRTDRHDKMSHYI

[15] = miR-122 activators in hepatoma reporter cells, dose response, cell-based, Huh7 psiCHECK-miR122, Renilla luciferase, cherry-picked (AID 651956); type: functional;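 further: huh7 hepatoma cells stably carrying a psiCHECK-2 miR-122 sensor plasmid; renilla luciferase signal reporting endogenous miR-122 activity after 48 h compound exposure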
[16] = target: T6, Sentrin-specific protease 8 (Homo sapiens, UniProt Q96LD8); type: functional
T6 sequence (Q96LD8 whole entry): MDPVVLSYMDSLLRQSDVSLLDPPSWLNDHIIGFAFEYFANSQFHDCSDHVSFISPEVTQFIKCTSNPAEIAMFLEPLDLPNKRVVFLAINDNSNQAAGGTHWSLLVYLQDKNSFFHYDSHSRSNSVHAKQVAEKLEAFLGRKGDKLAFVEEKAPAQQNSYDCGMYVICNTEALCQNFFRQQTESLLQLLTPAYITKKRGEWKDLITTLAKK

[17] = target: T6, Sentrin-specific protease 8; type: functional; remark: listed apart in the source

T4 sequence (P49327 whole entry, the tested form may be a part): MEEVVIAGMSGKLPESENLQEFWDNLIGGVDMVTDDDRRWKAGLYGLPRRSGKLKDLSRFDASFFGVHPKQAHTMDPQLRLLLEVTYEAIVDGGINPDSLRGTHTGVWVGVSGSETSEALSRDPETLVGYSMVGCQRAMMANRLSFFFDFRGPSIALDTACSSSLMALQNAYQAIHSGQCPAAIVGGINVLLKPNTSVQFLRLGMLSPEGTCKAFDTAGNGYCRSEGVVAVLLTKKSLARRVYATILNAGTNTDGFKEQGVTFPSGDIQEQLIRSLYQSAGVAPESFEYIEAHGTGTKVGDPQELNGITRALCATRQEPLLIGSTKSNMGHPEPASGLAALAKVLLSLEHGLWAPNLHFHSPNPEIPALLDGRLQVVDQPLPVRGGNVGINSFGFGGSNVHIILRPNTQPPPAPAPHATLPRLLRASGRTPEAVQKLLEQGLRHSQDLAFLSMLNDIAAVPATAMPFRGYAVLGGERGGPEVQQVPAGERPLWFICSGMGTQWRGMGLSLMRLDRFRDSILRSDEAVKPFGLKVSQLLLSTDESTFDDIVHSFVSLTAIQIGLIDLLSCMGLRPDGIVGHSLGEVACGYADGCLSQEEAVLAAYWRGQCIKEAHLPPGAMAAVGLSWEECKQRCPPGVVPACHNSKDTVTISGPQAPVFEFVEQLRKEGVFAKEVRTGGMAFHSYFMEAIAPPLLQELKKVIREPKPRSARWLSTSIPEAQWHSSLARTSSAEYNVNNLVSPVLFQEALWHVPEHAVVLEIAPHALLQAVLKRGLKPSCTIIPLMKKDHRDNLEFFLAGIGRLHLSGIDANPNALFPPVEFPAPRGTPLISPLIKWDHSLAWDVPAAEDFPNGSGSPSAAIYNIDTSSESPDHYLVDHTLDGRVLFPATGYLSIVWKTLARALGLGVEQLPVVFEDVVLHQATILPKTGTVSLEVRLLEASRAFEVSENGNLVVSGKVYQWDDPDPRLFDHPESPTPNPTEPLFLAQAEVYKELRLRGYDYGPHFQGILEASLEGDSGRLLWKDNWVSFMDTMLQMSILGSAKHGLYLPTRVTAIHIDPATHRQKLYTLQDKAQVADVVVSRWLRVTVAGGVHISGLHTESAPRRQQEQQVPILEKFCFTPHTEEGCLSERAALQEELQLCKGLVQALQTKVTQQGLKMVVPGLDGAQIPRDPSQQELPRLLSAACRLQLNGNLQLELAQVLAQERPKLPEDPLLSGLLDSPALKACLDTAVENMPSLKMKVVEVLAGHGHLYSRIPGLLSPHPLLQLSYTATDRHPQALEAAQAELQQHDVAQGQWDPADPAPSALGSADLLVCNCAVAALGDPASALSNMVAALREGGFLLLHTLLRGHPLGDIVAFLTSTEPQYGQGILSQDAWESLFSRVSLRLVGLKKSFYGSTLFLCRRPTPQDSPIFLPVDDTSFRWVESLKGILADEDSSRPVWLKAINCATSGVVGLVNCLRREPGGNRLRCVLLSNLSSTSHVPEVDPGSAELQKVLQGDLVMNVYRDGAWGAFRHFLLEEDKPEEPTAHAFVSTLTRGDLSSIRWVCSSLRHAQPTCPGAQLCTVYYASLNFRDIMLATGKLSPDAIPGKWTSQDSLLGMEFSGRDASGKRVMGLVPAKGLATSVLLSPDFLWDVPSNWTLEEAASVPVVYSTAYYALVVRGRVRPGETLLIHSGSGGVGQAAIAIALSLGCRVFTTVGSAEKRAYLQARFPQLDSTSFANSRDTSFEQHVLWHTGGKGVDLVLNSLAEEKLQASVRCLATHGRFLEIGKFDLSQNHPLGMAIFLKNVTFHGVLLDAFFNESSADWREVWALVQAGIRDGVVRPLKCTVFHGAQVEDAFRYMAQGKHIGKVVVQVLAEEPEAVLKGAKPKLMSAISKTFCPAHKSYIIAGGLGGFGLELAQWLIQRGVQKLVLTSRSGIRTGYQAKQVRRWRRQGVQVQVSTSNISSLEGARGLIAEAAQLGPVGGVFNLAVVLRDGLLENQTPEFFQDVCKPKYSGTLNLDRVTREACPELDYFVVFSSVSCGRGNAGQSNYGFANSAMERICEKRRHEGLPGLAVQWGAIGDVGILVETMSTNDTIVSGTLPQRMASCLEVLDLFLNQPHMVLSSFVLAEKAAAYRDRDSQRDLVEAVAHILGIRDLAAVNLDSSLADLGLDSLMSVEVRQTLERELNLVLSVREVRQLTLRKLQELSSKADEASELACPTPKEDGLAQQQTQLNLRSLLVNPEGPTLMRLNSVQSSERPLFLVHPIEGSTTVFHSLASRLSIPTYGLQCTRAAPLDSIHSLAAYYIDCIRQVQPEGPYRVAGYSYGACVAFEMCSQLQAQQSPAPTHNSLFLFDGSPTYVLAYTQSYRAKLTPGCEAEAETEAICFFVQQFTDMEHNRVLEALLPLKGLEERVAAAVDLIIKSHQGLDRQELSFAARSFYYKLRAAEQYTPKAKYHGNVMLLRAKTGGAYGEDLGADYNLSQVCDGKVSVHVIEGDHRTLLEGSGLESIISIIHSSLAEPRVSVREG
T1 sequence (P63165 whole entry): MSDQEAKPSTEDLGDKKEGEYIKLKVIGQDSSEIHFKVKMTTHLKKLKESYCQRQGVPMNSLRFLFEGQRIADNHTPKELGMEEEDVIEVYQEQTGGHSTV
Sequence of Dual specificity protein phosphatase 3 (P51452 whole entry): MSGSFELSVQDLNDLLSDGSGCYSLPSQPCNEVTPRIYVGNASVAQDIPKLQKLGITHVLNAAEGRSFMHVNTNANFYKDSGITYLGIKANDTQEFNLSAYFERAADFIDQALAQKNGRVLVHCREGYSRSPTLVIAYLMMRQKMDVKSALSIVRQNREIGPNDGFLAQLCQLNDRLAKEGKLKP

O=C(c1ccccc1)N1CCN(c2ccc([N+](=O)[O-])c(NCC3CCCO3)c2)CC1 (stereo not given)
AC50 (Escherichia coli [1]): 105 µM (active)
AC50 (Escherichia coli [2]): 40.2 µM (active)

CC(=O)c1c(C)[nH]c(C(=O)OCC(=O)c2ccc3c(c2)NC(=O)CO3)c1C
IC50 [3]: > 66.6 µM (inactive)
IC50 [4]: 6.39 µM (active)

CC(=O)N1CCC(N(CCN2CCOCC2)C(=S)Nc2ccc(C)cc2)CC1
IC50 [5]: 3.44 µM (active)
IC50 [6]: 17.9 µM (active)
IC50 [7]: > 80 µM (inactive)

CC(NC(=O)Nc1cccc([N+](=O)[O-])c1)c1ccc2c(c1)OCO2 (stereo not given)
IC50 (Fatty acid synthase [8]): 2.18 µM (active)
IC50 (Fatty acid synthase [9]): 1.64 µM (active)

CCCCCNC(=O)C(c1ccncc1)n1c(=O)c(-c2cc3ccccc3[nH]2)nc2ccccc21 (stereo not given)
AC50 [10]: 4 µM (active)
AC50 [11]: 4.68 µM (active)
AC50 [12]: 31.9 µM (active)
AC50 [13]: 7.8 µM (active)
AC50 [14]: 2.62 µM (active)

Cc1n[nH]c(-c2cccnc2)c1N=NN(C)C
AC50 (Escherichia coli [1]): 0.628 µM (active)
AC50 (Escherichia coli [2]): 2.15 µM (active)

CCOc1ccc(C(=S)N2CCN(C)CC2)cc1
IC50 [5]: 1.42 µM (active)
IC50 [6]: 3.9 µM (active)
IC50 [7]: 24.6 µM (inactive)

C[C@@H]1C=C[C@](Cc2ccccc2)(C(=O)NCC2CC2)N1C(=O)c1ccccc1
IC50 (Protein skinhead-1): > 100 µM (inactive)

C/C=C/c1ccc([C@@H]2[C@@H](CO)N(C(C)=O)[C@@H]2CN(C)C(=O)c2ccccn2)cc1
AC50 [15]: 39.6 µM (active)

CCCCCn1c(CN2CCN(c3cccc(Cl)c3)CC2)nc2c1c(=O)n(C)c(=O)n2C
IC50 (Fatty acid synthase [8]): 3.96 µM (active)
IC50 (Fatty acid synthase [9]): 4.64 µM (active)

O=C1Cc2ccccc2C(=O)N1OCc1ccc(Cl)cc1
IC50 [16]: 11 µM (active)
IC50 [17]: 11.8 µM (active)
